# Earlier results, collected in patent US20140187513A1, “METHOD OF IMPROVING SKILLS WITH A COMPOSITION COMPRISING NON-DIGESTIBLE SACCHARIDE” (priority 2007, published 2014).
# Settings: oral, autistic children, pilot study
smiles,measurement,value
CN[C@H](CC(C)C)C(=O)N[C@H]1C(=O)N[C@@H](CC(N)=O)C(=O)N[C@H]2C(=O)N[C@H]3C(=O)N[C@H](C(=O)N[C@H](C(=O)O)c4cc(O)cc(O)c4-c4cc3ccc4O)[C@H](O)c3ccc(c(Cl)c3)Oc3cc2cc(c3O[C@@H]2O[C@H](CO)[C@@H](O)[C@H](O)[C@H]2O[C@H]2C[C@](C)(N)[C@H](O)[C@H](C)O2)Oc2ccc(cc2Cl)[C@H]1O [vancomycin],cognitive effect following vancomycin treatment,significant cognitive improvement
